This note sets out measurements from ChEMBL document CHEMBL1130526, “Amide surrogates of matrix metalloproteinase inhibitors: Urea and sulfonamide mimics” (Bioorg Med Chem Lett, 1997).

A value given as a limit tells only on which side of the number the result lay.

The target in assay [1] is T1, Stromelysin-1 (Homo sapiens, UniProt P08254). Briefly: Inhibition of Matrix metalloprotease-3 (MMP-3) at 50 uM.
Target sequence in this assay (P08254 100-477 limits assumed): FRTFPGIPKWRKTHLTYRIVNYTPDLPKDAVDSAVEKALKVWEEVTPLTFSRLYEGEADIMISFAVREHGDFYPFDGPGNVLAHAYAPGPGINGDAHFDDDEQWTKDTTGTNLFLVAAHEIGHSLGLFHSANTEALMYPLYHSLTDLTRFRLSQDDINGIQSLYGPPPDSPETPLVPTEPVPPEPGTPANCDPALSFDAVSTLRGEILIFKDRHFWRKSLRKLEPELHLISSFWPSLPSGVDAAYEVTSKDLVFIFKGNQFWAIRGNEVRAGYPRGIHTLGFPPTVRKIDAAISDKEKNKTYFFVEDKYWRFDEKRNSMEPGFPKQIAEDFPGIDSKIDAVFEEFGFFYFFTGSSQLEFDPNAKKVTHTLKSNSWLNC
Assay [2] addresses Matrix metalloproteinase-9 (Homo sapiens, UniProt P14780). Briefly: Inhibition of Matrix metalloprotease-9.
For assay [3], the target named is 72 kDa type IV collagenase (Homo sapiens, UniProt P08253). Briefly: Inhibition of Matrix metalloprotease-2 (MMP-2).
In the next assay the target is T2, Interstitial collagenase (Homo sapiens, UniProt P03956).
T2 sequence (P03956 whole entry): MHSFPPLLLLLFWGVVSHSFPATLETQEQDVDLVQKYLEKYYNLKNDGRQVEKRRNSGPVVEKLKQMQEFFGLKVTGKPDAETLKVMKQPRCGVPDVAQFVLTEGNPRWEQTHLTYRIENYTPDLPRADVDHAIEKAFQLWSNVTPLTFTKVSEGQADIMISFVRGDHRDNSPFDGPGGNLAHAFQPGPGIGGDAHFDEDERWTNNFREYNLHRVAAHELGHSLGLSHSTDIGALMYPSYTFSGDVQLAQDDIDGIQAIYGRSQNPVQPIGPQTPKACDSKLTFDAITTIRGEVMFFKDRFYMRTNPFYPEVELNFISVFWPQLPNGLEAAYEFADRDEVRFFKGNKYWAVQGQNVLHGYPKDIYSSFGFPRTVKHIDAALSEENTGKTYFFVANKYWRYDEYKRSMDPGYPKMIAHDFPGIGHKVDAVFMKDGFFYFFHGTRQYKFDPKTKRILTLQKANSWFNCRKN
The experiment in a line: Inhibition of Matrix metalloprotease-1 (MMP-1).

In assay [4] the target is T1, Stromelysin-1. The experiment in a line: Inhibition of Matrix metalloprotease-3 (MMP-3).
Target sequence in this assay (P08254 whole entry): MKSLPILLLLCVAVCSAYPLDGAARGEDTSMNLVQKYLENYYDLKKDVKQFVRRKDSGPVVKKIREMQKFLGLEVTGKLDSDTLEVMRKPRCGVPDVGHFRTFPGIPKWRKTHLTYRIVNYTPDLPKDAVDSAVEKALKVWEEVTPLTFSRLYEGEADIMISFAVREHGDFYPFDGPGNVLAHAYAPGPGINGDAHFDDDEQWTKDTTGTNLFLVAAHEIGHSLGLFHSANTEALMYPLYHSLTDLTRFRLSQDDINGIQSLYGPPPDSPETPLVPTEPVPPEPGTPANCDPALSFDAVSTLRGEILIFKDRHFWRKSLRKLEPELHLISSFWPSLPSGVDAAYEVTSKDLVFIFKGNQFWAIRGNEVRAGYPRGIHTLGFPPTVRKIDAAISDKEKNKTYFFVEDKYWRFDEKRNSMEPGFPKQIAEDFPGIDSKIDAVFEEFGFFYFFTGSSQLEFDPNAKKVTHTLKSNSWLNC

Matrix metalloproteinase-9, sequence (P14780 whole entry): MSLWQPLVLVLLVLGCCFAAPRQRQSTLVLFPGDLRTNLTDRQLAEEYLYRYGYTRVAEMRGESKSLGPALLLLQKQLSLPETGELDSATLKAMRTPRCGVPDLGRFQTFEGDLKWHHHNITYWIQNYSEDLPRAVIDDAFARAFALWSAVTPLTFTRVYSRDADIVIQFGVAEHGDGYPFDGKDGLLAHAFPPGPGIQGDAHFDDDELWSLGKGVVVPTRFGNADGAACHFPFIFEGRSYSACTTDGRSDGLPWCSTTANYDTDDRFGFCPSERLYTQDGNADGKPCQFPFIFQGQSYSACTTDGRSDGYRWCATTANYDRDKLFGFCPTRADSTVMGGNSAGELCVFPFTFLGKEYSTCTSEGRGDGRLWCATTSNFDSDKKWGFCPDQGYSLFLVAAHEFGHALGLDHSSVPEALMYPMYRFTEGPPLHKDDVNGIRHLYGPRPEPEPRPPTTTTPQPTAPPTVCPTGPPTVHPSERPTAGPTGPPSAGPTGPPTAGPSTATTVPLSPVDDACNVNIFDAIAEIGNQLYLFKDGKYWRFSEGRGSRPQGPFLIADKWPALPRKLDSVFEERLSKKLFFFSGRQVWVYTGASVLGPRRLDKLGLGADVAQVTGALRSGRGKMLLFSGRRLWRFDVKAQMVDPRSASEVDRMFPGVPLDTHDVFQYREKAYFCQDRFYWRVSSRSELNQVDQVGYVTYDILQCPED
72 kDa type IV collagenase, sequence (P08253 whole entry): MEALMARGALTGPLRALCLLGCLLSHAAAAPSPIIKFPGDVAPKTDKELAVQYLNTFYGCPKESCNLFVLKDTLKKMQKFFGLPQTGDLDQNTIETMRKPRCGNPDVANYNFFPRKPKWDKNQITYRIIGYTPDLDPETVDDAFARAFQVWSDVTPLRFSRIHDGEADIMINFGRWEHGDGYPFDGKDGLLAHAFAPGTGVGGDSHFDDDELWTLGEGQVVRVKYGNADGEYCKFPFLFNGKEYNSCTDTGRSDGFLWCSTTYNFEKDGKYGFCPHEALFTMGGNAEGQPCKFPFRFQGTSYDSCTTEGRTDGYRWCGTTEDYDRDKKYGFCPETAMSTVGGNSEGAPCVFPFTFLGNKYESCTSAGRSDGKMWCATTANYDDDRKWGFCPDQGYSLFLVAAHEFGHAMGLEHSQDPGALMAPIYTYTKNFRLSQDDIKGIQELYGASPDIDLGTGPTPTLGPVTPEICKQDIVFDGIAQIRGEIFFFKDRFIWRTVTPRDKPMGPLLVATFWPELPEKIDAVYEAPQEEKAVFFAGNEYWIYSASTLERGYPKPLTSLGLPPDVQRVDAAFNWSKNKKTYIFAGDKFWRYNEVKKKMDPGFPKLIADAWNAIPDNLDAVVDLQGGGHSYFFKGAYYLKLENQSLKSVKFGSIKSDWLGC

Broadly, the inhibition is the change of the read-out against control, counted positive when it falls. Lower therefore signals little suppression. What is called Ki is a dissociation constant, usually derived from enzyme kinetics or from competition with a known ligand. A high value points to lower affinity. Consider `CCCCCCC(CC(=O)O)S(=O)(=O)N[C@@H](Cc1ccc(OC)cc1)C(=O)NC` (stereo not given in full), for which the inhibition against Stromelysin-1 [1] is 10%. In addition, the Ki worked out at 290 nM in assay [2], 1300 nM in assay [3] and 11200 nM at Interstitial collagenase.

Turning to `CNC(=O)[C@H](Cc1ccc(OC)cc1)NS(=O)(=O)C(CC(=O)O)CC(C)C` (stereo not given in full), the Ki at Stromelysin-1 [4] was 19100 nM; in assay [2], 19200 nM; in assay [3], 3000 nM; on Interstitial collagenase it was > 50000 nM.

At Stromelysin-1 [1], `CNC(=O)[C@H](Cc1ccc(OC)cc1)NS(=O)(=O)C(CCc1ccccc1)CC(=O)O` (stereo not given in full) displayed an inhibition of 10%. Moreover, the figures for the Ki (in assay [2]; in assay [3]; on Interstitial collagenase) were 9900 nM, 5300 nM and 22400 nM, respectively.

As to `CNC(=O)[C@H](Cc1ccc(OC)cc1)NC(=O)[C@@H](CC(=O)O)CC(C)C`, the Ki on Stromelysin-1 [4] turned out to be 29400 nM; in assay [2], 184 nM; in assay [3], 860 nM; at Interstitial collagenase it was 336 nM.

Take `CCCCCCC(CC(=O)NO)S(=O)(=O)N[C@@H](Cc1ccc(OC)cc1)C(=O)NC` (stereo not given in full): the Ki on Stromelysin-1 [4] was 4000 nM; in assay [2] it was 210 nM; in assay [3] it was 430 nM; at Interstitial collagenase, 2300 nM.

In the case of `CNC(=O)[C@H](Cc1ccc(OC)cc1)NC(=O)[C@@H](CC(=O)NO)CC(C)C`, the Ki (on Stromelysin-1 [4]; in assay [2]) was < 10 nM each time.

For the compound `CNC(=O)[C@H](Cc1ccc(OC)cc1)NS(=O)(=O)C(CC(=O)NO)CC(C)C` (stereo not given in full), the Ki on Stromelysin-1 [4] is 4100 nM; in assay [2] it was 620 nM; in assay [3], 620 nM; at Interstitial collagenase it was 770 nM.

For the compound `CNC(=O)[C@H](Cc1ccc(OC)cc1)NS(=O)(=O)C(CCc1ccccc1)CC(=O)NO` (stereo not given in full), the Ki stood at 2200 nM at Stromelysin-1 [4], 1500 nM in assay [2], 550 nM in assay [3] and 640 nM at Interstitial collagenase.
